Data taken from patent US20220315567A1 (priority 2016, published 2022).
Where a name gives a salt, the structure may show the parent alone. Read-outs that look alike come from different tables or passages of the source.

Key:
human OPRM1 (μ, MOR) [1] = target: T1, human OPRM1 (μ, MOR) (Homo sapiens, UniProt P35372); test: cell-based; conditions: for Emax: OPRM1, read-out: cAMP Emax; for EC50: PathHunter human OPRM1 Arrestin CHO-K1 cell line, read-out: cAMP EC50
T1 construct: host or cells: CHO-K1
T1 sequence (P35372 whole entry): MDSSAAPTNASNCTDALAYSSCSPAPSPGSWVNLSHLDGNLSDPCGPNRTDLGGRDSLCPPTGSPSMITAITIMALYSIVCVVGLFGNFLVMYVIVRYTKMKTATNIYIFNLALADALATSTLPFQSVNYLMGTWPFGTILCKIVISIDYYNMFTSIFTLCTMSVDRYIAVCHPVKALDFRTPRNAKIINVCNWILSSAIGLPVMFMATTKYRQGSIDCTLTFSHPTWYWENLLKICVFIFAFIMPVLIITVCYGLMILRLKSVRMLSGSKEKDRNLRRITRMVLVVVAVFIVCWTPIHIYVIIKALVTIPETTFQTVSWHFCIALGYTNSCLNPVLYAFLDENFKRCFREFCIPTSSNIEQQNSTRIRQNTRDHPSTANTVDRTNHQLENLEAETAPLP
Protocol: G-protein signaling was measured via second messenger cAMP modulation. Detection of cAMP modulation was accomplished in the PathHunter human OPRM1 (μ, MOR) Arrestin CHO-K1 cell line using the Dynamic2 cAMP Kit from Cisbio.

human OPRM1 (μ, MOR) [2] = target: T1, human OPRM1 (μ, MOR); test: cell-based; conditions: for Emax: OPRM1, read-out: β-Arrestin Emax; for EC50: PathHunter human OPRM1 Arrestin CHO-K1 cell line, read-out: β-Arrestin EC50
Protocol: The Discoverx PathHunter® β-Arrestin assay is used to measure β-arrestin-2 activity. The technology is based on Enzyme Fragment Complementation (EFC) with β-galactosidase (β-Gal) as the reporter. […] EA is fused to Q-arrestin-2, and ED is fused to the C-terminus of the GPCR of interest. When a ligand binds and the GPCR is activated, Q-arrestin-2 is recruited to the receptor resulting in an ED/EA complementation, restoring f-Gal activity, which is measured using chemiluminescence. For this assay, the PathHunter human OPRM1 (μ, MOR) Arrestin CHO-K1 cell line was used.

human OPRM1 (μ, MOR) [3] = target: T1, human OPRM1 (μ, MOR); type: cell-based; conditions: for ΔRA of compound: relative activity from EC50 and Emax of β-arrestin vs cAMP, lower RA = more G-protein biased
Protocol: In certain embodiments, the ability of a compound to activate G-protein or β-arrestin is not an on/off switch for a given pathway, but rather a continuous function. To capture this, each compound is measured for activity in cell assays that are linked to β-arrestin recruitment and G-protein signaling. By comparing the activity between these two measures (accounting for both EC50 and maximal response reached, Emax) a relative activity (RA) value is determined.
In the case of MOR it is desirable to have high activation of the G-protein pathway while reducing activation of β-arrestin. In the case of the formula above, this means a lower RA.

Compound | melting point | EC50 (human OPRM1 (μ, MOR) [1]) | EC50 (human OPRM1 (μ, MOR) [2]) | Bias Factor (ΔRA of compound relative to ΔRA of DAMGO) × 10 (human OPRM1 (μ, MOR) [3]) | ΔRA of compound (human OPRM1 (μ, MOR) [3]) | also measured
CN(C)C(CNC(=O)N1Cc2ccc(O)cc2C1)c1ccsc1 (stereo not drawn) (as salt: hydrobromid) [Compound 22, N-(2-(Dimethylamino)-2-(thiophen-3-yl)ethyl)-5-hydroxyisoindoline-2-carboxamide hydrobromide] | 134 °C (dec.) | – | – | – | – | –
CN(C)C(CNC(=O)N1Cc2ccc(O)cc2C1)c1ccc(O)cc1 (stereo not drawn) (as salt: hydrobromid) [Compound 24, N-(2-(dimethylamino)-2-(4-hydroxyphenyl)ethyl)-5-hydroxyisoindoline-2-carboxamide hydrobromide] | 185 °C (dec.) | – | – | – | – | –
CN(C)C(CNC(=O)N1Cc2ccccc2C1)c1ccsc1 (stereo not drawn) (as salt: hydrochloride) [Compound 1a, N-(2-(Dimethylamino)-2-(thiophen-3-yl)ethyl)isoindoline-2-carboxamide hydrochloride] | 145 to 150 °C (dec.) | – | – | – | – | –
CN(C)C(CNC(=O)N1Cc2cccc(F)c2C1)c1ccsc1 (stereo not drawn) (as salt: hydrochloride) [Compound 3a, N-(2-(Dimethylamino)-2-(thiophen-3-yl)ethyl)-4-fluoroisoindoline-2-carboxamide hydrochloride] | 150 to 155 °C (dec.) | – | – | – | – | –
CN(C)C(CNC(=O)N1Cc2ccc(Cl)cc2C1)c1ccsc1 (stereo not drawn) (as salt: hydrochloride) [Compound 4a, 5-Chloro-N-(2-(dimethylamino)-2-(thiophen-3-yl)ethyl)isoindoline-2-carboxamide hydrochloride] | 210 to 215 °C (dec.) | – | – | – | – | –
COc1ccc2c(c1)CN(C(=O)NCC(c1ccsc1)N(C)C)C2 (stereo not drawn) (as salt: hydrochloride) [Compound 5a, N-(2-(Dimethylamino)-2-(thiophen-3-yl)ethyl)-5-methoxyisoindoline-2-carboxamide hydrochloride] | 210 to 215 °C (dec.) | – | – | – | – | –
CN(C)C(CNC(=O)N1Cc2cc(F)c(F)cc2C1)c1ccsc1 (stereo not drawn) (as salt: hydrochloride) [Compound 6a, N-(2-(dimethylamino)-2-(thiophen-3-yl)ethyl)-5,6-difluoroisoindoline-2-carboxamide hydrochloride] | 210 to 212 °C | – | – | – | – | –
CN(C)C(CNC(=O)NC1CCc2ccccc2C1)c1ccsc1 (stereo not drawn) (as salt: hydrochloride) [Compound 10a, 1-(2-(Dimethylamino)-2-(thiophen-3-yl)ethyl)-3-(1,2,3,4-tetrahydronaphthalen-2-yl)urea hydrochloride] | 151 to 153 °C | – | – | – | – | –
CN(C)C(CNC(=O)NC1CCCc2ccccc21)c1ccsc1 (stereo not drawn) (as salt: hydrochloride) [Compound 11a, 1-(2-(Dimethylamino)-2-(thiophen-3-yl)ethyl)-3-(1,2,3,4-tetrahydronaphthalen-1-yl)urea hydrochloride] | 179 to 181 °C | – | – | – | – | –
Cc1ccc2c(c1)CN(C(=O)NCC(c1ccsc1)N(C)C)C2 (stereo not drawn) (as salt: hydrochloride) [Compound 12a, N-(2-(Dimethylamino)-2-(thiophen-3-yl)ethyl)-5-methylisoindoline-2-carboxamide hydrochloride] | 200 to 202 °C (dec.) | – | – | – | – | –
CN(C)C(CNC(=O)N(C)C1CCCc2ccccc21)c1ccsc1 (stereo not drawn) (as salt: hydrochloride) [Compound 13a, 3-(2-(Dimethylamino)-2-(thiophen-3-yl)ethyl)-1-methyl-1-(1,2,3,4-tetrahydronaphthalen-1-yl)urea hydrochloride] | 188 to 190 °C | – | – | – | – | –
CN(C)C(CNC(=O)N1Cc2ccccc2C1)c1ccc(F)cc1Cl (stereo not drawn) (as salt: hydrochloride) [Compound 14a, N-(2-(2-Chloro-4-fluorophenyl)-2-(dimethylamino)ethyl)isoindoline-2-carboxamide hydrochloride] | 147 to 149 °C | – | – | – | – | –
COc1ccc(C(CNC(=O)N2Cc3ccccc3C2)N(C)C)cc1 (stereo not drawn) (as salt: hydrochloride) [Compound 15a, N-(2-(Dimethylamino)-2-(4-methoxyphenyl)ethyl)isoindoline-2-carboxamide hydrochloride] | 149 to 151 °C (dec.) | – | – | – | – | –
COc1ccc(C(CNC(=O)N2Cc3ccc(F)cc3C2)N(C)C)cc1 (stereo not drawn) (as salt: hydrochloride) [Compound 16a, N-(2-(Dimethylamino)-2-(4-methoxyphenyl)ethyl)-5-fluoroisoindoline-2-carboxamide hydrochloride] | 145 to 149 °C (dec.) | – | – | – | – | –
CN(C)C(CNC(=O)N1Cc2ccc(F)cc2C1)c1ccc(F)cc1Cl (stereo not drawn) (as salt: hydrochloride) [Compound 17a, N-(2-(2-Chloro-4-fluorophenyl)-2-(dimethylamino)ethyl)-5-fluoroisoindoline-2-carboxamide hydrochloride] | 173 to 174 °C (dec.) | – | – | – | – | –
CN(C)C(CNC(=O)N1Cc2ccccc2C1)c1ccccc1 (stereo not drawn) (as salt: hydrochloride) [Compound 18a, N-(2-(Dimethylamino)-2-phenylethyl)isoindoline-2-carboxamide hydrochloride] | 107 to 108 °C | – | – | – | – | –
CN(C)C(CNC(=O)NC1CCc2ccccc2C1)c1ccccc1 (stereo not drawn) (as salt: hydrochloride) [Compound 19a, 1-(2-(Dimethylamino)-2-phenylethyl)-3-(1,2,3,4-tetrahydronaphthalen-2-yl)urea hydrochloride] | 160 to 161 °C | – | – | – | – | –
CN(C)C(CNC(=O)N1Cc2ccc(F)cc2C1)c1ccccc1 (stereo not drawn) (as salt: hydrochloride) [Compound 20a, N-(2-(Dimethylamino)-2-phenylethyl)-5-fluoroisoindoline-2-carboxamide hydrochloride] | 148 to 150 °C | – | – | – | – | –
CN(C)C(CNC(=O)N1Cc2ccc(F)cc2C1)c1ccsc1 (single isomer, unassigned) (as salt: hydrochloride) [2a-ent-(+), (+)—N-(2-(Dimethylamino)-2-(thiophen-3-yl)ethyl)-5-fluoroisoindoline-2-carboxamide hydrochloride] | 150 to 155 °C (dec.) | – | – | – | – | –
CN(C)C(CNC(=O)N1Cc2ccc(F)cc2C1)c1ccc(O)cc1 (stereo not drawn) [Compound 21, N-(2-(Dimethylamino)-2-(4-hydroxyphenyl)ethyl)-5-fluoroisoindoline-2-carboxamide] | 180 to 185 °C (dec.) | > 100000 nM | > 100 µM | – | – | Emax (human OPRM1 (μ, MOR) [1]): 4.5%; Emax (human OPRM1 (μ, MOR) [2]): < 1%
CN(C)[C@H](CCNC(=O)N1CC[C@H](c2ccccc2)C1)c1ccsc1 [Compound 75] | – | 2090 nM | 17 µM | −3.97 | −1.88 | Emax (human OPRM1 (μ, MOR) [1]): 114%; Emax (human OPRM1 (μ, MOR) [2]): 12.2%
CN(C)[C@H](CCNC(=O)N1CC[C@@H](c2ccccc2)C1)c1ccsc1 [Compound 76] | – | 1760 nM | > 100 µM | <−14.83 | <−2.96 | Emax (human OPRM1 (μ, MOR) [1]): 33%; Emax (human OPRM1 (μ, MOR) [2]): < 1%
CN(C)[C@@H](CCNC(=O)N1CC[C@@H](c2ccccc2)C1)c1ccsc1 [Compound 77] | – | 1100 nM | > 100 µM | <−14.83 | <−2.96 | Emax (human OPRM1 (μ, MOR) [1]): 33.2%; Emax (human OPRM1 (μ, MOR) [2]): < 1%
CNC(CNC(=O)N1Cc2ccccc2C1)c1ccsc1 (stereo not drawn) [Compound 78] | – | 362 nM | > 100 µM | <−14.83 | <−2.96 | cAMP Emax (human OPRM1 (μ, MOR) [1]): 104.0%; β-Arrestin Emax (human OPRM1 (μ, MOR) [2]): 12.8%
CNC(CNC(=O)N1Cc2ccccc2C1)c1ccsc1 (stereo not drawn) [Compound 79] | – | 87 nM | > 100 µM | <−14.83 | <−2.96 | cAMP Emax (human OPRM1 (μ, MOR) [1]): 64.2%; β-Arrestin Emax (human OPRM1 (μ, MOR) [2]): 1.7%
CNC(CNC(=O)N1Cc2cccc(F)c2C1)c1ccsc1 (stereo not drawn) [Compound 80] | – | 41 nM | 1.4 µM | −6.64 | −2.14 | Emax (human OPRM1 (μ, MOR) [1]): 103%; β-Arrestin Emax (human OPRM1 (μ, MOR) [2]): 25.2%
CNC(CNC(=O)N1Cc2cccc(F)c2C1)c1ccsc1 (stereo not drawn) [Compound 81] | – | 14 nM | > 100 µM | <−14.83 | <−2.96 | cAMP Emax (human OPRM1 (μ, MOR) [1]): 91.6%; β-Arrestin Emax (human OPRM1 (μ, MOR) [2]): 8.2%
CNC(CNC(=O)N1Cc2ccc(F)cc2C1)c1ccc(OC)cc1 (stereo not drawn) [Compound 82] | – | 457 nM | > 100 µM | <−14.83 | <−2.96 | Emax (human OPRM1 (μ, MOR) [1]): 83.2%; β-Arrestin Emax (human OPRM1 (μ, MOR) [2]): 2.7%
CNC(CNC(=O)N1Cc2ccc(F)cc2C1)c1ccc(OC)cc1 (stereo not drawn) [Compound 83] | – | 57 nM | > 100 µM | <−14.83 | <−2.96 | cAMP Emax (human OPRM1 (μ, MOR) [1]): 100.1%; β-Arrestin Emax (human OPRM1 (μ, MOR) [2]): 13.4%
